This is an account of results in patent publication US20080167363A1, “Modulation of Neurogenesis By Melatoninergic Agents” (BrainCells, Inc, priority 2006, published 2008).

In assay [1] the test system is Group I or Group III receptors. Conditions: at sub-mM concentrations; cited from earlier work.
Assay [2] deals with mGluR3 (Homo sapiens, UniProt Q14832). Conditions: antagonist; cited from earlier work.
Assay [3] addresses mGluR2 (Homo sapiens, UniProt Q14416). Conditions: antagonist; cited from earlier work.
Assay [4] relates to Human neural stem cells (hNSCs). The assay can be described thus: Neuronal differentiation of human neural stem cells (TUJ-1 staining). Conditions: for maximum neuronal differentiation percent of positive control: basal media values subtracted. The format is cell-based. From the text: Human neural stem cells (hNSCs) were isolated and grown in monolayer culture, plated, treated with varying concentrations of the melatonin agonist ramelteon and stained with TUJ-1 antibody, as described in U.S. Provisional Application No. 60/697,905 (incorporated by reference). Mitogen-free test media with a positive control for neuronal differentiation was used along with basal media without growth factors as a negative control. […] Provisional Application No. 60/697,905 (incorporated by reference). Mitogen-free test media with a positive control for neuronal differentiation was used along with basal media without growth factors as a negative control. Human neural stem cells (hNSCs) were isolated and grown in monolayer culture, plated, treated with varying concentrations of captopril and/or melatonin (test compounds), and stained with TUJ-1 antibody, as described in U.S. Provisional Application No. 60/697,905 (incorporated by reference). Mitogen-free test media with a positive control for neuronal differentiation was used along with basal media without growth factors as a negative control. Human neural stem cells (hNSCs) were isolated and grown in monolayer culture, plated, treated with varying concentrations of serotonin (5-HT) and/or melatonin (test compounds), and stained with TUJ-1 antibody, as described in U.S. Provisional Application No. 60/697,905 (incorporated by reference). Mitogen-free test media with a positive control for neuronal differentiation was used along with basal media without growth factors as a negative control. Human neural stem cells (hNSCs) were isolated and grown in monolayer culture, plated, treated with varying concentrations of buspirone in the presence or absence of the melatonin agonist melatonin, and stained with TUJ-1 antibody, as described in U.S. Provisional Application No. 60/697,905 (incorporated by reference). Mitogen-free test media with a positive control for neuronal differentiation was used along with basal media without growth factors as a negative control. Human neural stem cells (hNSCs) were isolated and grown in monolayer culture, plated, treated with varying concentrations of buspirone in the presence or absence of the melatonin agonist ramelteon, and stained with TUJ-1 antibody, as described in U.S. Provisional Application No. 60/697,905 (incorporated by reference). Mitogen-free test media with a positive control for neuronal differentiation was used along with basal media without growth factors as a negative control. Human neural stem cells (hNSCs) were isolated and grown in monolayer culture, plated, treated with varying concentrations of the melatonin […] and stained with TUJ-1 antibody, as described in U.S. Provisional Application No. 60/697,905 (incorporated by reference). Mitogen-free test media with a positive control for neuronal differentiation was used along with basal media without growth factors as a negative control. Human neural stem cells (hNSCs) were isolated and grown in monolayer culture, plated, treated with varying concentrations of the melatonin […] and stained with TUJ-1 antibody, as described in U.S. Provisional Application No. 60/697,905 (incorporated by reference). Mitogen-free test media with a positive control for neuronal differentiation was used along with basal media without growth factors as a negative control. Human neural stem cells (hNSCs) were isolated and grown in monolayer culture, plated, treated with varying concentrations of the melatonin agonist agomelatine and stained with TUJ-1 antibody, as described in U.S. Provisional Application No. 60/697,905 (incorporated by reference). Mitogen-free test media with a positive control for neuronal differentiation was used along with basal media without growth factors as a negative control. The presence of synergy was determined by use of a combination index (CI). […]

Assay [5] has as its system KA, AMPA, and NMDA iGlu receptors. The settings on record: cited from earlier work.
Assay [6] deals with human mGlu3 receptors (Homo sapiens, UniProt Q14832). Conditions: agonist, in vitro; cited from earlier work.
The target in assay [7] is human mGlu2 receptors (Homo sapiens, UniProt Q14416). The settings on record: agonist, in vitro; cited from earlier work.
Assay [8] concerns Human neural stem cells (hNSCs). As to the kind of experiment: Astrocyte differentiation of human neural stem cells (GFAP staining). The class given is cell-based. The settings on record: agent alone; for EC50: Homo sapiens, Neural stem cell, percent of astrocyte positive control, basal media subtracted. An excerpt:
Human neural stem cells (hNSCs) were isolated and grown in monolayer culture, plated, treated with varying concentrations of buspirone in the presence or absence of the melatonin agonist melatonin, and stained with an antibody for the detection of the astrocyte marker GFAP, as described in U.S. Provisional Application No. 60/697,905 (incorporated by reference). Mitogen-free test media with a positive control for astrocyte differentiation was used along with basal media without growth factors as a negative control. Human neural stem cells (hNSCs) were isolated and grown in monolayer culture, plated, treated with varying concentrations of buspirone in the presence or absence of the melatonin agonist ramelteon, and stained with an antibody for the detection of the astrocyte marker GFAP, as described in U.S. Provisional Application No. 60/697,905 (incorporated by reference). Mitogen-free test media with a positive control for astrocyte differentiation was used along with basal media without growth factors as a negative control.

Assay [9] relates to Male F344 rats. The assay can be described thus: In vivo neurogenesis (BrdU positive cells in dentate gyrus). Further details: species or system rat. Conditions: 0.5 mg/kg buspirone and/or 3.0 mg/kg melatonin, i.p., 1x per day for 28 days; compared to vehicle. How it is done: Male F344 rats were dosed 1× per day for 28-days with 0 (vehicle only), 0.5 mg/kg buspirone (n=12 per dose group, i.p.), 3.0 mg/kg melatonin (n=12 per dose group, ip) or the combination of the two drugs at the same doses. BrdU was administered once daily between days 9 and 14 (100 mg/kg/day, i.p., n=12 per dose group). […] Data are presented as percent change in BrdU positive cells per cubic mm dentate gyrus.
For the in vivo neurogenesis assays, male F344 rats were dosed 1× per day for 28-days with 0 (vehicle only), 0.5 mg/kg buspirone (n=12 per dose group, i.p.), 3.0 mg/kg melatonin (n=12 per dose group, ip) or the combination of the two drugs at the same doses. BrdU was administered once daily between days 9 and 14 (100 mg/kg/day, i.p., n=12 per dose group). […] Data are presented as percent change in BrdU positive cells per cubic mm dentate gyrus.

Assay [10] relates to Male F344 rats. As to the kind of experiment: Novelty suppressed feeding assay (latency to eat). The format is in vivo, rat. The settings on record: 0.5 mg/kg buspirone and/or 3.0 mg/kg melatonin, i.p., 1x per day for 21 days. The procedure:
Male F344 rats were dosed 1× per day for 21-days with 0 (vehicle only) 0.5 mg/kg buspirone (n=12 per dose group, i.p.) 3.0 mg/kg melatonin (n=12 per dose group, i.p.) or the combination of the two drugs at the same doses. […] Results shown in this figure indicate the mean latency to approach and eat a food pellet within the novel environment. Data are presented as latency to eat expressed as percent baseline.
Male F344 rats were dosed 1× per day for 21-days with 0 (vehicle only), 0.5 mg/kg buspirone (n=12 per dose group, i.p.), 3.0 mg/kg melatonin (n=12 per dose group, i.p.), or the combination of the two drugs at the same doses. Twenty-four hours prior to behavioral testing, all food is removed from the home cage. At the time of testing a single pellet is placed in the center of a novel arena. Animals are placed in the corner of the arena and the latency (in time) to eat the pellet is recorded. […] Animals receive compound daily for 21 days and testing is performed on day 21. A decreased latency to eat the food pellet is indicative of both neurogenesis and antidepressant activity.

Where [11] appears, read: Homo sapiens, Neural stem cell, agent alone, concentration response curve, percent of neuronal positive control, basal media subtracted, read-out: EC50, neuronal differentiation.

Where “and” joins values, the source holds several entries; their conditions need not be identical. Identical values can stand only once.

By IC50 is commonly meant the point on the concentration scale where inhibition reaches its midpoint. Usually EC50 stands for the concentration that produces a half-maximal response.

mGluR2, sequence (Q14416 19-872): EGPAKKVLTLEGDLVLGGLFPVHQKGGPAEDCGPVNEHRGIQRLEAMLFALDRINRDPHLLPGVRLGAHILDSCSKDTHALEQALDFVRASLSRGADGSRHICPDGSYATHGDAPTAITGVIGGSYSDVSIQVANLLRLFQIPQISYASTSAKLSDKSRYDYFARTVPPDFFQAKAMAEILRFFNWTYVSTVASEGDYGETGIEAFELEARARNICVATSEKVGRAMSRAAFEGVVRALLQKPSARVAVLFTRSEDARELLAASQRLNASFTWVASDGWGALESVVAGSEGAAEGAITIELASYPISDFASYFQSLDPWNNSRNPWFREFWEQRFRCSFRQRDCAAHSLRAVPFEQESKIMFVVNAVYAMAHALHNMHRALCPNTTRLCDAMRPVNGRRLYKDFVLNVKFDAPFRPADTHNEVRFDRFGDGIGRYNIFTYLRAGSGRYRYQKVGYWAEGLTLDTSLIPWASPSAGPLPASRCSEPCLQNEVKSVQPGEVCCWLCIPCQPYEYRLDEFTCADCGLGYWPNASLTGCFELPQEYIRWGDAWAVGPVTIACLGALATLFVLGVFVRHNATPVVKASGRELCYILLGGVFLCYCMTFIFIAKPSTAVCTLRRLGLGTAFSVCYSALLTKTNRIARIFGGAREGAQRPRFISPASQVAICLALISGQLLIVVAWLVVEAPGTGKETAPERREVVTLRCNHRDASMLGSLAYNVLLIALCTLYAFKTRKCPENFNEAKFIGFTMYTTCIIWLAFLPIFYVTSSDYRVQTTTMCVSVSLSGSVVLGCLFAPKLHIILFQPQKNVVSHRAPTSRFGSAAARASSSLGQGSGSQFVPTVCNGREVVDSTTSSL
human mGlu2 receptors, sequence (Q14416 19-872): as above
mGluR3, sequence (Q14832 23-879): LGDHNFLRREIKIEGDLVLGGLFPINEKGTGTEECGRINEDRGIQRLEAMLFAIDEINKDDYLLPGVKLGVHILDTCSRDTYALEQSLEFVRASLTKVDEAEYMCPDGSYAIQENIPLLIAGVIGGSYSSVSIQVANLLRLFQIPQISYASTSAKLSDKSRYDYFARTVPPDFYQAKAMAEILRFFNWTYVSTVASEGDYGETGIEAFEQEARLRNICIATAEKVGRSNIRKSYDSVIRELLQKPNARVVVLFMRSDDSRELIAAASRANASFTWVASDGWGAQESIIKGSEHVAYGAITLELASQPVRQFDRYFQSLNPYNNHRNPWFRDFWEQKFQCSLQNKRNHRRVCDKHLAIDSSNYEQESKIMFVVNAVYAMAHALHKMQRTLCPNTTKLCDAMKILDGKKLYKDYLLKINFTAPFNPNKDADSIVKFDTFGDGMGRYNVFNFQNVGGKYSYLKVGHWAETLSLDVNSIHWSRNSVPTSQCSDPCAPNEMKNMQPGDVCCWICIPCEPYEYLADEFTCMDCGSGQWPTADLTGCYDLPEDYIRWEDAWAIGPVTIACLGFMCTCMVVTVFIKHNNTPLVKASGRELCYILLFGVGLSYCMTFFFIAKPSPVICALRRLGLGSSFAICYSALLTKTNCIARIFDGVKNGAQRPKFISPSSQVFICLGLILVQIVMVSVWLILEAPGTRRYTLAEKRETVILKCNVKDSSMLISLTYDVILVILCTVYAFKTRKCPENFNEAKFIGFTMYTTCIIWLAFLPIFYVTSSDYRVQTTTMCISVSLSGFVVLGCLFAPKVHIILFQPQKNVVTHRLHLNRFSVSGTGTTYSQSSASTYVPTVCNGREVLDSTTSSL
human mGlu3 receptors, sequence (Q14832 23-879): as above

With `NC1(C(=O)O)CCc2cc(P(=O)(O)O)ccc21` (racemic) [APICA, (RS)-1-amino-5-phosphonoindan-1-carboxylic acid], the “activity against Group I or Group III receptors” value in assay [1] is on record as “no appreciable activity”. Besides, the IC50 in assay [2] and in assay [3] was about 30 µM in each case.
In the case of `CCC(=O)NC1Cc2ccccc2C(c2ccccc2)C1` (centres unmarked) [4-P-PDOT], the “maximum neuronal differentiation percent of positive control” value (“maximum neuronal differentiation percent” below) in [4] (agent alone) amounted to 51%. For the same compound, in assay [4] (agent alone, extrapolated beyond highest tested concentration 31.6 μM, read-out: EC50, neuronal differentiation, estimated by extrapolation), the EC50 was 33.7 µM.
On to `COc1ccc2cccc(CCNC(C)=O)c2c1` [Agomelatine], for which the half-maximal effective concentration (EC50) in assay [4] (setting [11]) is 8.7 µM. Further, the “maximum neuronal differentiation percent” value in assay [4] (agent alone) is on record as 42%.
Take `COC(=O)Nc1ccc2[nH]cc(CCNC(C)=O)c2c1` [GR 135,531, 5-Methoxy-carbonylamino-N-acetyl-tryptamine]: the EC50 in assay [4] (Homo sapiens, Neural stem cell, read-out: EC50, neuronal differentiation) turned out to be 0.24 µM. In assay [4] (agent alone), the “maximum neuronal differentiation percent” value is listed as 59%.
For the compound `N[C@](CC1c2ccccc2Oc2ccccc21)(C(=O)O)[C@H]1C[C@@H]1C(=O)O` [LY341495, (2S)-2-amino-2-(1S,2S-2-carboxycycloprop-1-yl)-3-(xanth-9-yl) propanoic acid], the “activity against KA, AMPA, and NMDA iGlu receptors” value in assay [5] is “substantially inactive”.
For `N[C@@]1(C(=O)O)CO[C@H]2[C@H](C(=O)O)[C@H]21` [LY379268, (−)-2-Oxa-4-aminobicyclohexane-4,6-dicarboxylic acid], the EC50 in assay [6] and in assay [7] was under 0.01 µM each time.
On to `CC(=O)NCCc1c(Cc2ccccc2)[nH]c2ccccc12` [Luzindole], for which the EC50 in assay [4] (setting [11]) came to 9.8 µM. The “maximum neuronal differentiation percent” value in assay [4] (agent alone) came to 86%.
In the case of `CCC(=O)NCC[C@@H]1CCc2ccc3c(c21)CCO3` [Ramelteon], the effect on astrogenesis result in assay [8] is “no astrogenesis”. For the same compound, in assay [4] (setting [11]), the EC50 came to 8.1 µM. In addition, the “maximum neuronal differentiation percent” value in assay [4] (agent alone) stood at 45%.
In the case of `O=C1CC2(CCCC2)CC(=O)N1CCCCN1CCN(c2ncccn2)CC1` [buspirone], in assay [9], the “BrdU positive cells per cubic mm dentate gyrus (percent change)” value is on record as “did not significantly change”. Besides, in assay [8], the EC50 worked out at 5.7 µM; the “maximum astrocyte differentiation relative to positive control” value is 60% and 59%. In addition, the EC50 in assay [4] (setting [11]) was 4.7 µM. Also, in assay [4] (agent alone), the “maximum neuronal differentiation percent” value is 62%. Further, in [10], the “latency to eat the food pellet (percent baseline)” value is “did not significantly reduce”.
On to `C[C@H](CS)C(=O)N1CCC[C@H]1C(=O)O` [captopril], for which, in [4] (setting [11]), the EC50 is 3.8 µM.
Take `COc1ccc2[nH]cc(CCNC(C)=O)c2c1` [melatonin]: the “BrdU positive cells per cubic mm dentate gyrus (percent change)” value in assay [9] is listed as “did not significantly change”. Further, the EC50 in assay [8] is over 31.6 µM; in assay [4] (setting [11]), over 31.6 µM; in assay [4] (Homo sapiens, Neural stem cell, agent alone, extrapolated beyond highest tested concentration 31.6 μM, read-out: EC50, neuronal differentiation, estimated by extrapolation), about 49.7 µM. Also, the effect on astrogenesis result in [8] is “no astrogenesis”; in assay [8] (listed as Melatonin), “no effect”. Moreover, in assay [10], the “latency to eat the food pellet (percent baseline)” value was “did not significantly reduce”.
`NCCc1c[nH]c2ccc(O)cc12` [serotonin, 5-hydroxytryptamine]: in assay [4] (setting [11]), the EC50 was 7.4 µM.
